Molecules are shown by their SMILES.

Series [1] relates to HCl-ethanol-induced ulcers generated at the mucosa of the stomach. As to the kind of experiment: Antiulcer Activity (HCl-Ethanol Ulcer). Format: in vivo. Conditions: oral, one hour before HCl-ethanol, rats. How it is done:
Antiulcer Activity (HCl-Ethanol Ulcer)
1.5 ml of a 60% aqueous ethanol solution containing 150 mM hydrochloric acid was orally administered to rats. One hour thereafter the rats were sacrificed and the length (mm) of HCl-ethanol-induced ulcers generated at the mucosa of the stomach were measured. Sum of the length of ulcer per animal is defined as ulcer coefficient. Specimens each was orally administered one hour before the HCl-ethanol administration. Inhibition rate was calculated as the ratio of the difference of ulcer coefficients of the control group and specimen-administered group to the ulcer coefficient of the control group.

Series [2] can be described thus: Acute Toxicity (oral administration). Particulars: mouse, in vivo. How it is done: Acute toxicity tests through oral administration were carried out using male ICR-strain mice (5 weeks old).
The mark [3] stands for this setting: Rattus norvegicus, 1 h, read-out: Inhibition Rate.

Consider `CC(=O)c1ccc2c(c1)C(=O)C1(CC1)O2` [Spizofurone, reference compound], for which the “Inhibition Rate” value in series [1] (100 mg/kg) amounted to 86.6%.

Take `COc1ccc2cc(/C=C/C3=CC(=O)OC3O)ccc2c1` (stereo not shown) [(6)]: in series [1] (setting [3]), the inhibition in vivo at 5 mg/kg was 61.3%.

With `O=C1C=C(/C=C/C=C/C=C/c2ccccc2)C(O)O1` (stereo not shown) [(10)], the inhibition in vivo at 5 mg/kg in series [1] (setting [3]) came to 61.8%.

Take `O=C1C=C(/C=C/C=C/c2ccccc2)C(O)O1` (stereo not shown) [(9)]: the inhibition in vivo at 5 mg/kg in series [1] (setting [3]) amounted to 98.6%.

`O=C1C=C(/C=C/c2cccc(C(=O)c3ccccc3)c2)C(O)O1` (stereo not shown) [(3)]: the inhibition in vivo at 5 mg/kg in series [1] (setting [3]) came to 69.7%.

As for `CN(C)c1ccc(/C=C/C2=CC(=O)OC2O)cc1` (stereo not shown) [(2)], the inhibition in vivo at 2.5 mg/kg in series [1] (setting [3]) came to 37.5%.

`O=C1C=C(/C=C/c2cccs2)C(O)O1` (stereo not shown) [(8)]: in series [1] (setting [3]), the inhibition in vivo at 2.5 mg/kg turned out to be 95.5%.

As to `O=C1C=C(/C=C/c2cccc3ccccc23)C(O)O1` (stereo not shown) [(5)], the inhibition in vivo at 2.5 mg/kg in series [1] (setting [3]) was 94%.

As for `O=C1C=C(/C=C/c2ccco2)C(O)O1` (stereo not shown) [(7)], in series [1] (setting [3]), the inhibition in vivo at 2.5 mg/kg worked out at 96%.

In the case of `O=C1C=C(/C=C/c2cccc(Cc3cccnc3)c2)C(O)O1` (stereo not shown) [(4)], the inhibition in vivo at 5 mg/kg in series [1] (setting [3]) came to 42%.

In the case of `CC(=O)CCC=C(C)CCC=C(C)CCC=C(C)CCC=C(C)C` [Teprenone, reference compound], in series [1] (Rattus norvegicus, 1 h, 25 mg/kg, read-out: Inhibition Rate), the inhibition in vivo at 25 mg/kg came out at 48.9%.

For orientation: LD50 means the dose at which mortality reaches 50%. A high value points to lower toxicity. Consider `CC(C)=C/C=C/C1=CC(=O)OC1O` (stereo not shown) [Compound (1), 5-hydroxy-4-[4-methyl-1,3-pentadienyl]-2(5H)-furanone], for which the median lethal dose (LD50) in series [2] was no less than 2000 mg/kg. Also, in series [1] (setting [3]), the inhibition in vivo at 5 mg/kg was 90.6%.

For the origin of these results see US5084464A, “Conjugated γ-hydroxybutenolide compounds and antiulcer agents containing the same as an effective ingredient” (Kuraray Company Ltd., priority 1989, dated 1992).
